Data on one molecule can be found in patent publication US6106866A, “In vivo agents comprising cationic drugs, peptides and metal chelators with acidic saccharides and glycosaminoglycans, giving improved site-selective localization, uptake mechanism, sensitivity and kinetic-spatial profiles, including tumor sites” (Access Pharmaceuticals, Inc., priority 1995, dated 2000).

“Also recorded” adds a separate entry of the source.

Data set [1] has as its system adriamycin/doxorubicin-resistant MCF-7 cell line. Description: Clonigenic tumor-cell killing assay, doxorubicin-resistant MCF-7 (14C-glucose, Bactec, day 9). It counts as cell-based, human. From the text:
(§1) The paired-ion doxorubicin:dermatan sulfate (essentially purified dermatan sulfate, 435 Type, Opocrin) of Example 28 (=doxorubicin:DS), is compared to standard doxorubicin liquid (Adria Laboratories), for tumor-cell killing potency in a clonigenic assay, using the following human breast cancer cell lines: parent MCF-7 cell line and adriamycin/doxorubicin-resistant MCF-7 cell line. For each group, five serial dilutions of each formulation were mixed on day 0, with an appropriate number of cells, growth medium and ^14 C-labelled glucose, the mixture then injected into serum vials pre-gassed with 5% CO2, and the vials incubated at 37° C. (with cells continuously exposed to drug). […] Results are shown in Table 5 for the day of peak counts (day 9): […]

The subject of data set [2] is AT-1 prostate carcinomas. Description: Acute in vivo tumor localization and tumor-cell internalization by fluorescence microscopy. On the set-up: species or system Copenhagen rats. On the procedure: FIG. 21A. Frozen 8-micron thick section of prostate adenocarcinoma (outer 2/3 of tumor of ca. 4 cm diameter), excised from its host rat (Copenhagen strain, syngeneic) 3 hours after intravenous injection of 5 mg/Kg doxorubicin:DS (doxorubicin in association with essentially purified dermatan sulfate, 435 Type, Opocrin) at a weight ratio of 60:40 (doxorubicin to dermatan sulfate), and fluorescence microscopy performed using a rhodamine-type filter to elicit direct fluorescence of the doxorubicin drug substance (see also Example 29). […] This is indicative of high tumor-cell internalization of the doxorubicin drug substance.
The paired-ion doxorubicin:dermatan sulfate (essentially purified dermatan sulfate, 435 Type, Opocrin) of Example 28 (=doxorubicin:DS) and standard doxorubicin liquid (Adria Laboratories) are injected at 5 mg/kg of doxorubicin i.v., into Copenhagen rats with AT-1 prostate carcinomas grown in a skin pouch (to mimic growth at deep organ sites). The rats are sacrificed at 3 hours after injection, the tumors and major organs removed, the cut tumors & organ pieces placed in OCT polymer and frozen at […], and cryostat sections cut at 8 um and coverslipped. Fluorescence microscopy is performed by exciting the sections using a rhodamine-type bandpass filter (at ca. 485 nm--in order to selectively excite doxorubicin) and assessing direct doxorubicin fluorescence (at an emission wavelength greater than 530 nm) to determine the following: […]

Data set [3] in a line: Acute in vivo toxicity of doxorubicin:dermatan sulfate vs standard doxorubicin (day of death). On the set-up: species or system male Balb/c mice. The settings on record: 22.5 mg/Kg i.v. From the text:
The days of death are: doxorubicin:DS: modal day=6, mean=5.5±0.9 SE; standard doxorubicin: modal day=day 5, mean=4.8±0.5SE.

The subject of data set [4] is parent MCF-7 cell line. The experiment in a line: Clonigenic tumor-cell killing assay, parent MCF-7 (14C-glucose, Bactec, day 9). The format is cell-based. The note with it: Homo sapiens, MCF7, 216 h.
From the text: as §1

For data set [5] the following is noted: mouse, in vivo; cited from earlier work.

Regarding `COc1cccc2c1C(=O)c1c(O)c3c(c(O)c1C2=O)C[C@@](O)(C(=O)CO)C[C@@H]3O[C@H]1C[C@H](N)[C@H](O)[C@H](C)O1` [Standard doxorubicin], the “ability to overcome resistance” value in data set [1] is given as “unable to do so”. For the same molecule, in data set [1] (Homo sapiens, MCF7, 216 h, day 9), the IC50 (usually the concentration that inhibits the measured activity by half) turned out to be 22.3 µM. Moreover, the IC90 – broadly, the concentration at which the effect reaches the 90% level – in data set [1] (day 9) is listed as “not achieved”. Besides, in data set [2] (5 mg/Kg i.v., 3 hours), the “direct drug fluorescence in tumor cells” value is on record as “markedly lower fluorescence”; the “fluorescence of endothelium / microvessels” value is “general lack of fluorescence in and around the large tumor microvessel; also recorded: general lack of fluorescence in and around tumor microvessel (image center) and in tumor-cell nuclei”; the “fluorescence of tumor-cell nuclei” value is recorded as “no identifiable fluorescence in the tumor-cell nuclei”. The “Fluorescence near capillaries (scale of 0 to 4+)” value in data set [2] (2/3 of regions) turned out to be 0. The “Fluorescence away from capillaries (scale of 0 to 4+)” value in data set [2] (Adriamycin PFS: most regions, doxorubicin:DS: ca. 8/10 of regions) is given as 0. Besides, in data set [2] (rat, in vivo), the “Endothelial fluorescence (scale of 0 to 4+)” value was determined as 0 and the “Endothelial nuclear fluorescence (scale of 0 to 4+)” value was 0. In data set [3], the “modal day of death” value turned out to be 5 days. Further, in data set [3] (± SE), the “mean day of death” value came to 4.8 ± 0.5 days. In addition, in data set [4], the IC50 is 20 nM and the IC90 was 60 nM. For the same molecule, the “reported LD90 in mice” value in data set [5] is 22.5 mg/kg.
